Measured values: US9056858B2, “Indazole and pyrazolopyridine compounds as CCR1 receptor antagonists” (Boehringer Ingelheim International GmbH, priority 2009, dated 2015)

These compounds were tested against T1, CCR1 (Homo sapiens, UniProt P32246) (assay: functional cellular assay measuring calcium flux in CCR1 transfected cells (block of CCR1/MIP-1α interaction)). Details: cells stably expressing recombinant CCR1 and G-alpha-16, MIP-1alpha added at EC80.
T1 construct: host or cells: Non-adherent cells
T1 sequence (P32246 1-355): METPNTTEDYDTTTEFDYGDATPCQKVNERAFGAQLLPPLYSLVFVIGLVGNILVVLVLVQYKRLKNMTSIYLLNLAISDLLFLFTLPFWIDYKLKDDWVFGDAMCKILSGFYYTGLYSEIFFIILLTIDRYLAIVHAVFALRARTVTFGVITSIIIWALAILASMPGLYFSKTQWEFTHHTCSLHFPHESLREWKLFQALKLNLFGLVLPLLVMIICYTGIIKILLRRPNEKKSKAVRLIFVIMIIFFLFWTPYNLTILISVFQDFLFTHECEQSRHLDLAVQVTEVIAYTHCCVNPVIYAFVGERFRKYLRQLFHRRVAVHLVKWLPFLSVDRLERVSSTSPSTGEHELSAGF
Assay type: cell-based
Method: Compounds are assessed for the ability to block the interaction of CCR1 and MIP-1α in a functional cellular assay measuring calcium flux in CCR1 transfected cells.
Non-adherent cells purchased from Chemicon Corporation (HTS005C), stably expressing recombinant CCR1 and G-alpha-16 are grown in RPMI 1640 medium (Mediatech 10-080-CM) supplemented with 10% FBS, 0.4 mg/mL Geneticin and penicillin/streptomycin. On the day of the assay, the cells are loaded with Calcium 4 dye (Molecular Devices R7448) with Probenecid (Invitrogen P346400) at 8E5 cells/mL for 1 hour at room temperature. After 1 hour, they are seeded in a 384-well tissue culture-treated plate at a density of 20,000 cells/well. Appropriately diluted test compound is added to the well to achieve a top concentration of 3,000 nM (diluted 4-fold with 10 doses total). The final concentration of DMSO is 1%. The buffer is HBSS (Invitrogen 14025) with 20 mM HEPES at pH 7.4. The cells incubate 30 minutes at 37 C and then 30 minutes at room temperature. The plates are transferred to the […] FDSS6000 where MIP-1alpha in 1% BSA is added at the EC80 final concentration. All plates must be read within 4 hours of the start of dye-loading. Wells +/− MIP-1alpha containing diluted DMSO instead of compound serve as the controls. Data are analyzed using Activity Base software.

IC50 [µM]	Structure (SMILES)
0.004	CS(=O)(=O)c1cc(C2(NC(=O)c3cccc4c3cnn4-c3ccc(F)cc3)CC2)ccn1 [1-(4-Fluoro-phenyl)-1H-indazole-4-carboxylic acid [1-(2-methanesulfonyl-pyridin-4-yl)-cyclopropyl]-amide]
0.265	O=C(NC1(c2nncs2)CC1)c1cncc2c1cnn2-c1ccc(F)cc1 [1-(4-Fluoro-phenyl)-1H-pyrazolo[3,4-c]pyridine-4-carboxylic acid (1-1,3,4-thiadiazol-2-yl-cyclopropyl)-amide]
0.026	Cc1cccc(C2(NC(=O)c3cncc4c3cnn4-c3ccc(F)cc3)CC2)c1 [1-(4-Fluoro-phenyl)-1H-pyrazolo[3,4-c]pyridine-4-carboxylic acid (1-m-tolyl-cyclopropyl)-amide]
0.061	Cc1ccccc1C1(NC(=O)c2cncc3c2cnn3-c2ccc(F)cc2)CC1 [1-(4-Fluoro-phenyl)-1H-pyrazolo[3,4-c]pyridine-4-carboxylic acid (1-o-tolyl-cyclopropyl)-amide]
0.014	Cc1ccc(C2(NC(=O)c3cncc4c3cnn4-c3ccc(F)cc3)CC2)cc1 [1-(4-Fluoro-phenyl)-1H-pyrazolo[3,4-c]pyridine-4-carboxylic acid (1-p-tolyl-cyclopropyl)-amide]
0.109	O=C(NC1(c2ccccc2)CC1)c1cncc2c1cnn2-c1ccc(F)cc1 [1-(4-Fluoro-phenyl)-1H-pyrazolo[3,4-c]pyridine-4-carboxylic acid (1-phenyl-cyclopropyl)-amide]
0.088	O=C(NC1(c2cccnc2)CC1)c1cncc2c1cnn2-c1ccc(F)cc1 [1-(4-Fluoro-phenyl)-1H-pyrazolo[3,4-c]pyridine-4-carboxylic acid (1-pyridin-3-yl-cyclopropyl)-amide]
0.018	O=C(NC1(c2ccncc2)CC1)c1cncc2c1cnn2-c1ccc(F)cc1 [1-(4-Fluoro-phenyl)-1H-pyrazolo[3,4-c]pyridine-4-carboxylic acid (1-pyridin-4-yl-cyclopropyl)-amide]
0.003	O=C(NC1(c2ccnc(Br)c2)CCC1)c1cncc2c1cnn2-c1ccc(F)cc1 [1-(4-Fluoro-phenyl)-1H-pyrazolo[3,4-c]pyridine-4-carboxylic acid [1-(2-bromo-pyridin-4-yl)-cyclobutyl]-amide]
0.0005	O=C(NC1(c2ccnc(Br)c2)CC1)c1cncc2c1cnn2-c1ccc(F)cc1 [1-(4-Fluoro-phenyl)-1H-pyrazolo[3,4-c]pyridine-4-carboxylic acid [1-(2-bromo-pyridin-4-yl)-cyclopropyl]-amide]
0.099	Cc1nc(C2(NC(=O)c3cncc4c3cnn4-c3ccc(F)cc3)CC2)cs1 [1-(4-Fluoro-phenyl)-1H-pyrazolo[3,4-c]pyridine-4-carboxylic acid [1-(2-methyl-thiazol-4-yl)-cyclopropyl]-amide]
0.001	O=C(NC1(c2cccc(Br)c2)CC1)c1cncc2c1cnn2-c1ccc(F)cc1 [1-(4-Fluoro-phenyl)-1H-pyrazolo[3,4-c]pyridine-4-carboxylic acid [1-(3-bromo-phenyl)-cyclopropyl]-amide]
0.04	NC(=O)c1cccc(C2(NC(=O)c3cncc4c3cnn4-c3ccc(F)cc3)CC2)c1 [1-(4-Fluoro-phenyl)-1H-pyrazolo[3,4-c]pyridine-4-carboxylic acid [1-(3-carbamoyl-phenyl)-cyclopropyl]-amide]
0.003	O=C(NC1(c2cccc(Cl)c2)CC1)c1cncc2c1cnn2-c1ccc(F)cc1 [1-(4-Fluoro-phenyl)-1H-pyrazolo[3,4-c]pyridine-4-carboxylic acid [1-(3-chloro-phenyl)-cyclopropyl]-amide]
0.011	O=C(NC1(c2nc(C3CC3)no2)CC1)c1cncc2c1cnn2-c1ccc(F)cc1 [1-(4-Fluoro-phenyl)-1H-pyrazolo[3,4-c]pyridine-4-carboxylic acid [1-(3-cyclopropyl-1,2,4-oxadiazol-5-yl)-cyclopropyl]-amide]
0.013	O=C(NC1(c2cccc(F)c2)CC1)c1cncc2c1cnn2-c1ccc(F)cc1 [1-(4-Fluoro-phenyl)-1H-pyrazolo[3,4-c]pyridine-4-carboxylic acid [1-(3-fluoro-phenyl)-cyclopropyl]-amide]
0.001	CS(=O)(=O)c1cccc(C2(NC(=O)c3cncc4c3cnn4-c3ccc(F)cc3)CC2)c1 [1-(4-Fluoro-phenyl)-1H-pyrazolo[3,4-c]pyridine-4-carboxylic acid [1-(3-methanesulfonyl-phenyl)-cyclopropyl]-amide]

IC50 [µM]	Structure (SMILES)
0.005	COc1cccc(C2(NC(=O)c3cncc4c3cnn4-c3ccc(F)cc3)CC2)c1 [1-(4-Fluoro-phenyl)-1H-pyrazolo[3,4-c]pyridine-4-carboxylic acid [1-(3-methoxy-phenyl)-cyclopropyl]-amide]
0.002	CNC(=O)c1cccc(C2(NC(=O)c3cncc4c3cnn4-c3ccc(F)cc3)CC2)c1 [1-(4-Fluoro-phenyl)-1H-pyrazolo[3,4-c]pyridine-4-carboxylic acid [1-(3-methylcarbamoyl-phenyl)-cyclopropyl]-amide]
0.003	NS(=O)(=O)c1cccc(C2(NC(=O)c3cncc4c3cnn4-c3ccc(F)cc3)CC2)c1 [1-(4-Fluoro-phenyl)-1H-pyrazolo[3,4-c]pyridine-4-carboxylic acid [1-(3-sulfamoyl-phenyl)-cyclopropyl]-amide]
0.0004	O=C(NC1(c2cccc(C(F)(F)F)c2)CC1)c1cncc2c1cnn2-c1ccc(F)cc1 [1-(4-Fluoro-phenyl)-1H-pyrazolo[3,4-c]pyridine-4-carboxylic acid [1-(3-trifluoromethyl-phenyl)-cyclopropyl]-amide]
0.29	NCc1ccnc(C2(NC(=O)c3cncc4c3cnn4-c3ccc(F)cc3)CC2)c1 [1-(4-Fluoro-phenyl)-1H-pyrazolo[3,4-c]pyridine-4-carboxylic acid [1-(4-aminomethyl-pyridin-2-yl)-cyclopropyl]-amide]
0.004	O=C(NC1(c2ccc(Br)cc2)CC1)c1cncc2c1cnn2-c1ccc(F)cc1 [1-(4-Fluoro-phenyl)-1H-pyrazolo[3,4-c]pyridine-4-carboxylic acid [1-(4-bromo-phenyl)-cyclopropyl]-amide]
0.01	O=C(NC1(c2ccc(Cl)cc2)CC1)c1cncc2c1cnn2-c1ccc(F)cc1 [1-(4-Fluoro-phenyl)-1H-pyrazolo[3,4-c]pyridine-4-carboxylic acid [1-(4-chloro-phenyl)-cyclopropyl]-amide]
0.017	O=C(NC1(c2cc(Cl)ccn2)CC1)c1cncc2c1cnn2-c1ccc(F)cc1 [1-(4-Fluoro-phenyl)-1H-pyrazolo[3,4-c]pyridine-4-carboxylic acid [1-(4-chloro-pyridin-2-yl)-cyclopropyl]-amide]
0.062	O=C(NC1(c2ccc(F)cc2)CCC1)c1cncc2c1cnn2-c1ccc(F)cc1 [1-(4-Fluoro-phenyl)-1H-pyrazolo[3,4-c]pyridine-4-carboxylic acid [1-(4-fluoro-phenyl)-cyclobutyl]-amide]
0.075	O=C(NC1(c2ccc(F)cc2)CC1)c1cncc2c1cnn2-c1ccc(F)cc1 [1-(4-Fluoro-phenyl)-1H-pyrazolo[3,4-c]pyridine-4-carboxylic acid [1-(4-fluoro-phenyl)-cyclopropyl]-amide]
0.002	O=C(NC1(c2cc(I)ccn2)CC1)c1cncc2c1cnn2-c1ccc(F)cc1 [1-(4-Fluoro-phenyl)-1H-pyrazolo[3,4-c]pyridine-4-carboxylic acid [1-(4-iodo-pyridin-2-yl)-cyclopropyl]-amide]
0.051	COc1ccc(C2(NC(=O)c3cncc4c3cnn4-c3ccc(F)cc3)CCC2)cc1 [1-(4-Fluoro-phenyl)-1H-pyrazolo[3,4-c]pyridine-4-carboxylic acid [1-(4-methoxy-phenyl)-cyclobutyl]-amide]
0.017	COc1ccc(C2(NC(=O)c3cncc4c3cnn4-c3ccc(F)cc3)CC2)cc1 [1-(4-Fluoro-phenyl)-1H-pyrazolo[3,4-c]pyridine-4-carboxylic acid [1-(4-methoxy-phenyl)-cyclopropyl]-amide]
0.031	COc1ccnc(C2(NC(=O)c3cncc4c3cnn4-c3ccc(F)cc3)CC2)c1 [1-(4-Fluoro-phenyl)-1H-pyrazolo[3,4-c]pyridine-4-carboxylic acid [1-(4-methoxy-pyridin-2-yl)-cyclopropyl]-amide]
0.705	NCc1ccc(C2(NC(=O)c3cncc4c3cnn4-c3ccc(F)cc3)CC2)nc1 [1-(4-Fluoro-phenyl)-1H-pyrazolo[3,4-c]pyridine-4-carboxylic acid [1-(5-aminomethyl-pyridin-2-yl)-cyclopropyl]-amide]
0.009	O=C(NC1(c2ccc(Br)cn2)CC1)c1cncc2c1cnn2-c1ccc(F)cc1 [1-(4-Fluoro-phenyl)-1H-pyrazolo[3,4-c]pyridine-4-carboxylic acid [1-(5-bromo-pyridin-2-yl)-cyclopropyl]-amide]
